Experimental data taken from patent US10357537B2, “Cyclotides as immunosuppressive agents” (priority 2011, dated 2019).
Values joined by “and” are separate entries in the source; they are usually repeats but may differ in a detail not shown here. Identical values can stand only once. Bridge positions count the residues as written; N and C are the ends. Peptide text beside a SMILES is read from it.

Assays:
[1] = system: PHA-L-stimulated PBMC; experiment: Proliferation of PHA-L-stimulated CFSE-labelled PBMC with or without exogenous IL-2; assay type: cell-based, human; details: cyclotides 4 μM, CsA 5 μg/mL, 3 day culture; for proliferation with exogenous IL-2: IL-2 10 U/mL
Experimental: FIG. 13. Proliferation capacity of cyclotide-treated PBMC in the presence of exogenous IL-2. […] The cells were cultured without exogenous IL-2 (10 U/mL) (A and B) or in the presence of IL-2 (C and D). The CFSE-labelled cells were measured after a 3 day culture period by flow cytometry and representative data are presented in dot plots (A and C). Data are presented as mean and standard deviation (SD) of three independent experiments.
(§1) Following purification, PBMCs were equilibrated for 2 h at 37° C. […] This was followed by washing of each well with 100 μl PBS (centrifugation for 5 min, 1000 rpm, 20° C.) and re-suspending the cells in 100 μl medium for further assays.
Purified PBMCs (5*10^6 cells/ml) were incubated with […] of the fluorescent dye CFSE (5-carbofluoreszenein-ciacetat-succinylester) for 10 min at 37° C. The reaction was stopped using medium, cells were washed one time with medium by centrifugation (10 min, 300×g, 20° C.) and diluted with medium to 4*10^6 cells/ml.

[2] = system: IL-2 release in PBMCs; experiment: IL-2 release of PBMC, ELISA-based FACS; assay type: cell-based, human; details: PHA-L 24 h, PMA/ionomycin 6 h; T20K 4 μM, CsA 5 μg/mL
Experimental: as §1
(§2) Activated cells were resuspended in 50 μl of medium, transferred into a 96-well plate and treated with 10 μg/ml PHA-L. After incubation for 24 h cells were re-stimulated with PMA (50 ng/ml) und ionomycin (500 ng/ml) for 6 h. Next, the cells were transferred into Eppendorf tubes, centrifuged (5 min, 3000 RPM, 20° C.) und 50 μl of the supernatant was again transferred into new tubes and stored at −20° C. Production of cytokines was measured and quantified using the FlowCytomix™ kit according to manufacturer's instructions.
To analyze the mechanism of cyclotide-mediated anti-proliferation of T-lymphocytes, their effect on the direct release of IL-2 in PBMCs was determined. The cells were treated with a cyclotide and activated with PHA-L. After 24 h the cells were re-stimulated with PMA and ionomycin and the IL-2 concentration in the supernatant (released IL-2) was measured with an ELISA-based FACS methodology (FIG. 12A).

[3] = system: IL2 release in human T-cells; experiment: IL2 release in human T-cells, ELISA; assay type: cell-based; details: CsA, T20K 4 μM, V10K 4 μM; PHA-L, PMA/ionomycin
Experimental: B. IL2 release in human T-cells after treatment with cyclotide. […] After another two hours PHA-L (10 μg/mL) was added to the appropriate wells and incubated over night at 37° C. On the next day T-cells were re-stimulated with Ionomycin (500 ng/mL) and PMA (50 ng/mL) for 6 hours at 37° C. Cells were then centrifuged at 3000 rpm for 5 minutes to gain their supernatants. Supernatants of stimulated T-cells were analyzed for their IL2 release using a human IL-2 ELISA Kit from eBioscience according to the manufacturer's instructions. The color reaction was evaluated at an optical density of 450 nm by the microplate reader Synergy H4 (BioTek).
Moreover, supernatants of stimulated T-cells were analyzed for their IL2 release using a human IL-2 ELISA Kit from eBioscience according to the manufacturer's instructions. The color reaction was evaluated at an optical density of 450 nm by the microplate reader Synergy H4 (BioTek) (FIG. 12B).

[4] = system: nematodes; experiment: Relative nematocidal activity (other assays, Table 2); assay type: in vivo; details: some cells print two values separated by a slash
[5] = system: splenic T-cells of naive mouse group; experiment: Cytokine release of splenic T-cells of naive EAE mice treated in vitro, ELISA; assay type: cell-based; details: for IL2 release after 48 h incubation: V10K 4 μM, MOG35-55 30 μg/mL
Experimental: FIG. 22. Effect on cytokine release of ex vivo isolated PBMC at day 1 and 2. […] To approve this EAE TH bias towards TH17 and TH1 cells, IL4 release was again analyzed, but this TH2 cytokine was not detectable (I, J), as already indicated in (D).
Spleens of sacrificed mice were taken and transferred into a 6 cm Petri Dish with 5 mL sterile PBS. To receive a spleenocyte suspension, spleens were meshed and filtered through 70 μm nylon sieve. Cells were centrifuged at 1200 rpm for 5 minutes and resuspended in RPMI 1640 media supplemented with 10% fetal calf serum (FCS), 2 mM L-glutamine, penicillin (100 U/mL), and streptomycin (100 μg/mL). Spleenocytes were cultivated at a concentration of 3×10^6/mL in a 48-well flat-bottom plate (500 μL/well). Cells were stimulated with 30 μg/mL MOG35-55 or left untreated and incubated at 37° C. for three days. Supernatants and cells were taken stored at −20° C. until further experiments. […] After 12 hours MOG or T20K was added to appropriate wells. Supernatants were stored after 24 hours and after 48 hours at −20° C.
Supernatants of stimulated spleenocytes were analyzed for their IL2, IL17, INFγ, IL4 and IL22 cytokine release using anti-mouse antibodies for ELISA from eBioscience according to the manufacturer's instructions. The color reaction was evaluated at an optical density of 450 nm by the microplate reader Synergy H4 (BioTek).

[6] = system: IFN-gamma production of activated PBMCs; experiment: IFN-gamma secretion of PBMC, ELISA-based FACS; assay type: cell-based, human; details: for IFN-gamma production as compared to the control, 36 h: 36 h past stimulation
Experimental: FIG. 14. IFN-γ secretion by cyclotide-treated PBMC. […] Untreated cells were used as control. Following 24 h or 36 h of cultivation, the cells were restimulated with PMA/Ionomycin for further 6 hour. The amount of IFN-γ was measured in the supernatant of cultured cells using an ELISA-based flow cytometric method. The data are presented as mean and standard deviation (SD) of three independent experiments.
as §2
Therefore it is of interest to determine whether cyclotides only have anti-proliferative effects or also affect the effector function of T-lymphocytes, which would directly relate to changes in the IFN-gamma and TNF-alpha production. Therefore, the production of both cytokines of cyclotide-treated, activated PBMCs at an early time point after PBMC activation was tested.

## CC(C)C[C@@H]1NC(=O)CNC(=O)[C@H](CC(N)=O)NC(=O)[C@H](CCCNC(=N)N)NC(=O)[C@H]([C@@H](C)O)NC(=O)[C@@H]2CSSC[C@@H]3NC(=O)[C@H]([C@@H](C)O)NC(=O)CNC(=O)CNC(=O)[C@H](C(C)C)NC(=O)[C@@H]4CSSC[C@H](NC(=O)[C@H](CCCCN)NC(=O)[C@H](CSSC[C@H](NC(=O)[C@H](C(C)C)NC(=O)[C@@H]5CCCN5C1=O)C(=O)NCC(=O)N[C@@H](CCC(=O)O)C(=O)N[C@@H]([C@@H](C)O)C(=O)N4)NC(=O)CNC(=O)[C@@H]1CCCN1C(=O)[C@H]([C@@H](C)O)NC(=O)[C@H](CC(N)=O)NC3=O)C(=O)N[C@@H](CO)C(=O)N[C@@H](Cc1c[nH]c3ccccc13)C(=O)N1CCC[C@H]1C(=O)N[C@@H](C(C)C)C(=O)N2 [Kalata T20K] (cyclo(CGETCVGGTCNTPGCKCSWPVCTRNGLPV); disulfide 1-15, 5-17, 10-22 (inferred); ring closure inferred)
[1]
  proliferation with exogenous IL-2: 91%±1.4
  proliferation as compared to the control cells, without exogenous IL-2: 29%±24
[2]
  IL-2 release as compared to the control cells: 24%±18.6
[3]
  IL2 release in human T-cells: significant inhibition of cell proliferation in accordance to the IL2 level
[4]
  Relative activity in other assays (fold difference to kB1): nematocidal: 3.0 fold difference to kB1 and 2.6 fold difference to kB1
[5]; T20K 4 μM
  IL17 production after 48 h: inhibited
  IL2 release after 48 h incubation: significantly inhibited
[5]; T20K 4 μM compared with CsA 5 μg/mL
  IL2 inhibition after 24 h: non-significant to the immune suppressive agent CsA
[5]; dependent on the cyclotide addition
  INFγ and IL22 cytokine release: repressed significantly
[6]; 24 h + 6 h PMA/ionomycin, T20K 4 μM, CsA 5 μg/mL
  IFN-gamma concentration as compared to the control, 24 h: 21%±13.2
[6]
  IFN-gamma production as compared to the control, 36 h: did not induce significant changes in the level of IFN-gamma

## kalata B1 mutant GLPVCGETCKGGTCNTPGCTCSWPVCTRN (SEQ ID No. 10) [Kalata V10K]
[1]
  proliferation with exogenous IL-2: did not change the effect on proliferation
  proliferation as compared to the control cells, without exogenous IL-2: no effect on the proliferation
[2]
  IL-2 release as compared to the control cells: no effect on the release of IL-2
[3]
  IL2 release in human T-cells: comparable results
[4]
  Relative activity in other assays (fold difference to kB1): nematocidal: <0.2 fold difference to kB1
[5]; T20K 4 μM
  IL2 release after 48 h incubation: shows a inhibitory capacity towards IL2 release
[6]
  IFN-gamma production as compared to the control, 36 h: did not induce significant changes in the level of IFN-gamma
